Two compounds from the NIST ThermoML archive (doi:10.1016/j.tca.2009.10.010) can be followed below.

For data set [1] the following is noted: Crystal; visual observation.
Data set [2] can be described thus: Molar enthalpy of transition or fusion. As to conditions: Crystal; DSC.

Numbers after ± are expanded uncertainties.

Regarding `Oc1cccc(O)c1` [1,3-benzenediol], the Normal melting temperature in data set [1] came to 110.50 ± 1.1 °C. In addition, in data set [2], the “Molar enthalpy of transition or fusion” value came out at 5.31 ± 0.158 kcal/mol.

For the compound `Ic1ccc(I)cc1` [1,4-diiodobenzene], the Normal melting temperature in data set [1] stood at 130.00 ± 1.1 °C. Moreover, the “Molar enthalpy of transition or fusion” value in data set [2] is 5.77 ± 0.17 kcal/mol.
